{
  "source": "patent US20070225252A1",
  "about": "“Ketogenic Saccharides” (priority 2004, published 2007)",
  "experiment": "Ketogenesis in rats in vivo (plasma (R)-3-hydroxybutyrate after oral gavage)",
  "set-up": "species or system Male Sprague-Dawley rats",
  "details": "rat, ANOVA/Dunnett P<0.05",
  "experimental": "Male Sprague-Dawley rats (weight range 200-250 g Charles River, Margate, Kent) were group housed in polypropylene cages at a temperature of 21±4° C. and 55±20% humidity and on a standard light/dark cycle. Animals had free access to a standard pelleted rat diet and tap water at all times. Animals were accustomed to these conditions for at least one week before experimentation.\nCompounds were administered by oral gavage (po). Control animals received the appropriate vehicle via the same route. The experiment was performed over 2 days (ie 2 compounds were tested per day). Blood samples were taken by cardiac puncture after the animals were killed by a British Home Office Schedule 1 method. The terminal blood sample was collected into suitable plasma preparation tubes (EDTA-coated tubes). Plasma samples were initially frozen on dry ice and transferred to a −75° C. freezer until required for subsequent analysis (spectrophotometric analysis of (R)-3-hydroxybutyrate).\nSodium DL-β-hydroxybutyrate (H-6501 Lot 111K2618) was obtained from Sigma A stock solution of β-hydroxybutyrate (40 mM DL racemate equivalent to 20 mM D-isomer) was prepared in 0.9% saline solution, kept at 4° C. and used to generate appropriate dilutions for an assay standard curve.\nCommercial clinical assay kits for the determination of D-β-hydroxybutyrate were obtained from Randox Laboratories (Antrim, UK). Kits were obtained in two pack sizes (Ranbut RB1007: 10×10 ml and RB1008: 10×50 ml) but were otherwise identical. […] The kit relies on measuring the appearance of NADH via the activity of β-hydroxybutyrate dehydrogenase measured as an increase of OD340 nm. […]\nThe protocol supplied with the Ranbut kits was for a discrete (cuvette-based) spectrophotometzic assay, so the protocol was modified for suitability with a 96-well microplate format using blank, flat-bottomed microplates (Greiner PS 655101 Lot 98 35 01). […] Standard dilutions and samples were pipetted a single plate at a time and preincubated at 37° C. for 15 minutes in the sample compartment of a Molecular Devices VERSAmax tunable microplate reader: The appropriate volume of assay reagent was reconstituted, according to instructions, using distilled water and preincubated at 37° C. for 15 minutes using a static water bath. […] The plate was reloaded, mixed and then the change in OD340 nm followed in kinetic mode with a reading at every 15 seconds for a total of 2 minutes. The reaction rate was then determined from the OD increase over a suitable 1 minute period, after allowing a necessary period for the reaction rate to settle. The rate between 45 seconds and 105 seconds was used as the default measuring period, though occasionally a different period was used as necessary (eg if an aberrant reading was obtained at one of these time-points). […]",
  "data": [
    {"substance": "arabinose (R)-3-hydroxybutyrate ester [KTX 0312]", "values": [
      {"measurement": "increases in plasma 3-hydroxybutyrate concentrations (ketogenesis)", "setting": "351 mg/kg po, blood sampling 30, 120, 240 min vs vehicle", "value": "did not evoke significant ketogenesis"}
    ]},
    {"substance": "fructose (R)-3-hydroxybutyrate ester [KTX 0311]", "values": [
      {"measurement": "increases in plasma 3-hydroxybutyrate concentrations (ketogenesis)", "setting": "441 mg/kg po, blood sampling 30, 120, 240 min vs vehicle baseline", "value": "significant increases"}
    ]},
    {"substance": "glucose (R)-3-hydroxybutyrate ester [KTX 0310]", "values": [
      {"measurement": "increases in plasma 3-hydroxybutyrate concentrations (ketogenesis)", "setting": "440 mg/kg po, blood sampling 30, 120, 240 min vs vehicle", "value": "did not evoke significant ketogenesis"}
    ]},
    {"substance": "sorbitol 3-hydroxybutyrate tri-ester [KTX 0313]", "values": [
      {"measurement": "increases in plasma 3-hydroxybutyrate concentrations (ketogenesis)", "setting": "300 mg/kg po, blood sampling 30, 120, 240 min vs vehicle baseline", "value": "significant increases"}
    ]}
  ]
}
